{"source": "ChEMBL document CHEMBL1201862", "about": "“PubChem BioAssay data set” (2004)", "note": "Activity calls are given as the source filed them.", "data": [{"system": "not listed separately", "test": "microbe, parasite or virus in culture", "assay_type": "functional", "settings": "Mycobacterium tuberculosis", "values": [{"smiles": "Cc1ccc(N(CCC#N)C(=O)CCl)cc1C", "CC50": "1.84 µM (active)"}, {"smiles": "CC(C(=O)NC(=O)NC1CCCCC1)N(C)CC(=O)Nc1ccc(F)c(F)c1F", "note": "(stereo not given)", "CC50": "25.8 µM (active)"}, {"smiles": "CCCCCCCCCCC[C@@H](C[C@@H]1OC(=O)[C@H]1CCCCCC)OC(=O)[C@H](CC(C)C)NC=O", "note": "[ORLISTAT]", "CC50": "37.9 µM (active)"}, {"smiles": "CCOC(=O)CN=C(S)n1cnc(N)n1", "CC50": "> 40 µM (active)"}, {"smiles": "Cc1cc(NC(=O)c2cc(-c3ccncc3)nc3c(C)cccc23)no1", "CC50": "9.08 µM (active)"}, {"smiles": "Cc1ccc(C(C(=O)NCC2CCCO2)N(Cc2ccccc2)C(=O)c2ccc(-c3ccccc3)[nH]2)o1", "note": "(stereo not given)", "CC50": "> 40 µM (active)"}, {"smiles": "Cc1cc(C(=O)N/N=C\\C(Br)=C\\c2ccccc2)c(C)o1", "CC50": "> 40 µM (active)"}, {"smiles": "O=C(c1cccc(-c2ccco2)c1)N1CCCC(N2CCN(c3ccc(F)cc3)CC2)C1", "note": "(stereo not given)", "CC50": "> 40 µM (active)"}, {"smiles": "Cc1ccccc1-n1c(SCC(=O)N/N=C/c2c(C)nn(-c3ccccc3)c2C)nc2ccccc2c1=O", "CC50": "> 40 µM (active)"}, {"smiles": "C/C(CC(=O)Nc1ccc(Cl)cc1C(F)(F)F)=N\\NC(N)=S", "CC50": "> 40 µM (active)"}]}, {"molecular_target": "T1, Protein skinhead-1 (Caenorhabditis elegans, UniProt P34707)", "T1 sequence (P34707 whole entry)": "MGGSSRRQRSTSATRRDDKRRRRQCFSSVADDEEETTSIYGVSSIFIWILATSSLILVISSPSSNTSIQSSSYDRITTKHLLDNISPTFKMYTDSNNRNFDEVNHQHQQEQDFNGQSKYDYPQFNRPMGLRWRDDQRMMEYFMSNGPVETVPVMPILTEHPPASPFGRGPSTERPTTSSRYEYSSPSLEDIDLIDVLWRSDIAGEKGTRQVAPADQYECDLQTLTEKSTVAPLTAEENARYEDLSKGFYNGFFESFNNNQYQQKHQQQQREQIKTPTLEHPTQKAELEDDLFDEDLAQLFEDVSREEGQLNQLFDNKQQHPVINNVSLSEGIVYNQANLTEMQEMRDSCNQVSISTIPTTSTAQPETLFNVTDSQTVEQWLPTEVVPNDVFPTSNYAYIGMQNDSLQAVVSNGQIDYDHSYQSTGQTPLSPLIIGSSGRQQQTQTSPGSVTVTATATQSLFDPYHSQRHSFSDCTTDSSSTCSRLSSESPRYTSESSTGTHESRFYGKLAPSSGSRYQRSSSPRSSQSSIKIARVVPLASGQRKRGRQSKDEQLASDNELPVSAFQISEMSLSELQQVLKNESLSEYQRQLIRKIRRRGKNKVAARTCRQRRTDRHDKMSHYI", "test": "not given", "assay_type": "functional", "settings": "not given", "values": [{"smiles": "c1ccc(-c2cnc(-c3ccccc3)nn2)cc1", "IC50": "78.4 µM (inactive)"}, {"smiles": "Fc1cccc(-c2csc(-c3ccno3)n2)c1", "IC50": "> 100 µM (inactive)"}, {"smiles": "CCCC(=O)N(CCN1CCOCC1)c1nc2c(OCC)cccc2s1", "IC50": "> 100 µM (inactive)"}, {"smiles": "Cc1c(NC(=O)CSc2ccc3c(c2)OCCO3)c(=O)n(-c2ccccc2)n1C", "IC50": "> 100 µM (inactive)"}, {"smiles": "O=C1/C(=C\\c2ccc(C(F)(F)F)cc2)CSc2sccc21", "IC50": "69.4 µM (inactive)"}, {"smiles": "CC/C(=C\\c1ccc(Cl)cc1)c1ccncc1", "IC50": "13.5 µM (active)"}, {"smiles": "Clc1ccc(-c2cn3cccnc3n2)cc1Cl", "IC50": "> 100 µM (inactive)"}, {"smiles": "O=C(NCc1ccncc1)c1ccc(-c2ccc(F)c(F)c2)c2ccoc12", "IC50": "20.2 µM (active)"}, {"smiles": "Cc1nc(NC(=O)C2CC3CCCC(C2)C3=O)sc1C", "note": "(stereo not given)", "IC50": "> 100 µM (inactive)"}]}, {"molecular_target": "T2, Protein RecA (Mycobacterium tuberculosis, UniProt P9WHJ3)", "T2 sequence (P9WHJ3 whole entry)": "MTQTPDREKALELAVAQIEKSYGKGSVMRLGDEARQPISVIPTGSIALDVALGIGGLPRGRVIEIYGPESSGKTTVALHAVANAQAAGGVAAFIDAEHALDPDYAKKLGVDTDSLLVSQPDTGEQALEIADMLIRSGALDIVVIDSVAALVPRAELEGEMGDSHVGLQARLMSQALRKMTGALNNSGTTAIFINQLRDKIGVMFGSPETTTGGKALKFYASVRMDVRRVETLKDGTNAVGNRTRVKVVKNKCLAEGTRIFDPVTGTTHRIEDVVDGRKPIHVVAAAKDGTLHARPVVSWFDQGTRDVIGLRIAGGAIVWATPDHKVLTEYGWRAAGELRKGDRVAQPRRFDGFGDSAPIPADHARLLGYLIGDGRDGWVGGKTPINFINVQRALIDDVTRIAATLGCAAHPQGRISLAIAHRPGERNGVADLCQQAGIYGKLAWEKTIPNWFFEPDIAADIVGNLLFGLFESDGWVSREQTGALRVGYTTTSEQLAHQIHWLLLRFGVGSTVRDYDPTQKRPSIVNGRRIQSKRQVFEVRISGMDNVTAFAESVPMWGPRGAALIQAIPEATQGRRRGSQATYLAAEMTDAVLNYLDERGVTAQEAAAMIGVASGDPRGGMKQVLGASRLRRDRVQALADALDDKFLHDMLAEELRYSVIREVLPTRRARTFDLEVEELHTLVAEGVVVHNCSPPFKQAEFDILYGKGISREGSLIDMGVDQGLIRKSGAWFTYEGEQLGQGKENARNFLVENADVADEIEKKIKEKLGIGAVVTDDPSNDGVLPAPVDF", "test": "Fluorescence Cell-Free Homogeneous Dose Retest to Identify Inhibitors of RecA-Intein Splicing Activity. [Related pubchem assays (depositor defined):AID2097, AID2223, AID489010, AID492950]", "assay_type": "functional", "settings": "not given", "values": [{"smiles": "Cc1ccc(N(CCC#N)C(=O)CCl)cc1C", "EC50": "5.7 µM (active)"}]}, {"molecular_target": "T3, Replicative DNA helicase DnaB (Mycobacterium tuberculosis, UniProt P9WMR3)", "T3 sequence (P9WMR3 whole entry)": "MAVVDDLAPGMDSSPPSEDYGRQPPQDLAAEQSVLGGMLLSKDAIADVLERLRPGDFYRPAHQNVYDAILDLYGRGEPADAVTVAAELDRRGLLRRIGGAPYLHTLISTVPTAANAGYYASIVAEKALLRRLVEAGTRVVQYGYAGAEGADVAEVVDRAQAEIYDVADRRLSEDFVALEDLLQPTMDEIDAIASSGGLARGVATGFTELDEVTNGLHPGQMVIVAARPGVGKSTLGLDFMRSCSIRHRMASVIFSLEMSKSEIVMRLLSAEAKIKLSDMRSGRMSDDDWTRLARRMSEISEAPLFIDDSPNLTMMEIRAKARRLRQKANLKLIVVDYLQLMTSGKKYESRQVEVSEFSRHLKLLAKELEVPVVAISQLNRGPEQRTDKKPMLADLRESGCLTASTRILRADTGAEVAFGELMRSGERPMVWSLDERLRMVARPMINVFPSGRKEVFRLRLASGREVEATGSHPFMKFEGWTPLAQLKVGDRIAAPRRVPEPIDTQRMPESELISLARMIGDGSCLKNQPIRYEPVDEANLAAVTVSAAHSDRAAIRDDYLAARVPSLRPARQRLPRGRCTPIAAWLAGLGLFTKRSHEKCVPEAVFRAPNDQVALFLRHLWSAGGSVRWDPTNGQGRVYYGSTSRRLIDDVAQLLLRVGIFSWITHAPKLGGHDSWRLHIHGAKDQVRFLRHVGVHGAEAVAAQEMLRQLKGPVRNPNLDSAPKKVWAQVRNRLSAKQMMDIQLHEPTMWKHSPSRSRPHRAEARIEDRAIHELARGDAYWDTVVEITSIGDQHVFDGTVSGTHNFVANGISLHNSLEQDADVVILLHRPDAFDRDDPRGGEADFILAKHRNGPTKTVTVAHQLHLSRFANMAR", "test": "DnaB intein splicing inhibitors, dose response, biochemical, cell-free fluorescence (AID 449749)", "assay_type": "functional", "settings": "not given", "values": [{"smiles": "Cc1ccc(N(CCC#N)C(=O)CCl)cc1C", "AC50": "167 µM (active)"}]}, {"system": "not listed separately", "test": "cytotoxicity toward NIH3T3 fibroblasts, dose response, counter-screen, cell-based, ATP luminescence, mouse fibroblasts (AID 2010);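 note: cells exposed to compound for about 90 hours before reading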", "assay_type": "functional", "settings": "not given", "values": [{"smiles": "Cc1ccc(N(CCC#N)C(=O)CCl)cc1C", "EC50": "4.81 µM (active)"}, {"smiles": "Cc1ccccc1-n1c(SCC(=O)N/N=C/c2c(C)nn(-c3ccccc3)c2C)nc2ccccc2c1=O", "EC50": "> 60 µM (not active)"}]}, {"system": "not listed separately", "test": "inhibitors of intracellular T. cruzi replication, confirmation, NIH3T3 host cells, beta-gal luminescence (AID 2044);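 note: luminescent beta-galactosidase reporter signal from transgenic T. cruzi replicating inside host cells; inhibitors lower the luminescence signal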", "assay_type": "functional, cell-based", "settings": "not given", "values": [{"smiles": "Cc1ccc(N(CCC#N)C(=O)CCl)cc1C", "EC50": "3.59 µM (active)"}, {"smiles": "Cc1ccccc1-n1c(SCC(=O)N/N=C/c2c(C)nn(-c3ccccc3)c2C)nc2ccccc2c1=O", "EC50": "1.6 µM (active)"}]}]}
